ChEMBL document CHEMBL5356986, “Research status of indole-modified natural products” (RSC Med Chem, 2023)
≈ marks a conversion by molar mass, not a printed value.

Tests used:
Leishmania donovani = experiment: Antileishmanial activity against Leishmania donovani assessed as parasite growth inhibition; format: functional, organism-based
[1] = Antioxidant activity assessed as DPPH radical scavenging activity; format: functional
A549 [2] = experiment: Antiproliferative activity against human A549 cells assessed as reduction in cell viability incubated for 48 hrs by MTT assay; format: functional, cell-based; details: A549, 48 h
MCF7 [3] = experiment: Antiproliferative activity against human MCF7 cells assessed as reduction in cell viability incubated for 120 hrs by MTT assay; format: functional, cell-based; details: MCF7, 120 h
HeLa = experiment: Antiproliferative activity against human HeLa cells assessed as reduction in cell growth; format: functional, cell-based
A549 [4] = experiment: Antiproliferative activity against human A549 cells assessed as reduction in cell growth incubated for 72 hrs by MTT assay; format: functional, cell-based; details: A549, 72 h
K562 = experiment: Antiproliferative activity against human K562 cells assessed as cell growth inhibition by MTT assay; format: functional, cell-based
[5] = biological target: Prostaglandin G/H synthase 2 (Homo sapiens, UniProt P35354); experiment: Inhibition of COX-2 (unknown origin)
[6] = system: Trichophyton mentagrophytes; experiment: Antifungal activity against Trichophyton mentagrophytes assessed as inhibition of fungal growth incubated for 48 hrs by serial plate dilution method; format: functional
Nannizzia gypsea = experiment: Antifungal activity against Microsporum gypseum assessed as fungal growth inhibition; format: functional
[7] = system: Trichophyton mentagrophytes; experiment: Antifungal activity against Trichophyton mentagrophytes assessed as inhibition of microbial growth; format: functional
A549 [8] = experiment: Cytotoxicity against human A549 cells assessed as reduction in cell viability by MTS assay; format: functional, cell-based
Escherichia coli = experiment: Antibacterial activity against Escherichia coli assessed as reduction in bacterial cell viability; format: functional
RAW264.7 = experiment: Anti-inflammatory activity in mouse RAW264.7 cells assessed as inhibition of LPS-induced NO production; format: functional, cell-based
Candida albicans = experiment: Antibacterial activity against Candida albicans assessed as reduction in bacterial growth; format: functional
Bacillus subtilis = experiment: Antibacterial activity against Bacillus subtilis assessed as reduction in microbial growth; format: functional
Klebsiella pneumoniae = experiment: Antibacterial activity against Klebsiella pneumoniae assessed as reduction in bacterial growth by broth microdilution method; format: functional
Fusarium oxysporum = experiment: Antifungal activity against Fusarium oxysporum assessed as inhibition of fungal growth; format: functional
Staphylococcus aureus = experiment: Antibacterial activity against Staphylococcus aureus assessed as reduction in microbial growth; format: functional
Aspergillus niger = experiment: […] against Aspergillus niger assessed as […] incubated for 24 hrs by agar disc diffusion assay; format: functional
[9] = Inhibition of hyaluronidase (unknown origin); design: species or system Homo sapiens
HOP-92 = experiment: Growth inhibition against human HOP-92 cells incubated for 48 hrs by sulforhodamine B assay; format: functional
MDA-MB-453 = experiment: Antiproliferative activity against human MDA-MB-453 cells assessed as inhibition of cell growth incubated for 48 hrs by MTT assay; format: functional, cell-based; details: MDA-MB-453, 48 h
MCF7 [10] = experiment: Antiproliferative activity against human MCF7 cells assessed as inhibition of cell growth by CCK8 assay; format: functional, cell-based
MDA-MB-231 = experiment: Antiproliferative activity against human MDA-MB-231 cells assessed as reduction in cell viability incubated for 48 hrs by MTT assay; format: functional, cell-based; details: MDA-MB-231, 48 h
MCF7 [11] = experiment: Cytotoxicity against human MCF7 cells assessed as reduction in cell viability by MTS assay; format: functional, cell-based
HCT-116 = experiment: Cytotoxicity against human HCT-116 cells assessed as reduction in cell viability by MTS assay; format: functional, cell-based
Bel-7402 = experiment: Cytotoxicity against human Bel-7402 cells assessed as reduction in cell viability; format: functional, cell-based
A549 [12] = experiment: Antiproliferative activity against human A549 cells assessed as reduction in cell viability by MTT assay; format: functional, cell-based
Toxoplasma gondii = experiment: Antiparasitic activity against Toxoplasma gondii tachyzoites infected in human HeLa cells measured after 24 hrs by MTT assay; format: functional, organism-based
MCF7 [13] = experiment: Cytotoxicity against human MCF7 cells assessed as reduction in cell viability after 48 hrs by SRB assay; format: functional, cell-based; details: MCF7, 48 h
Caco-2 = experiment: Antiproliferative activity against human Caco-2 cells incubated for 96 hrs by MTT assay; format: functional, cell-based; details: Caco-2, 96 h
HepG2 [14] = experiment: Cytotoxicity against human HepG2 cells by MTT assay; format: functional, cell-based
Alpha glucosidase = Alpha glucosidase (Homo sapiens, UniProt O43451+P10253+P14410+Q2M2H8); experiment: Inhibition of Alpha-glucosidase (unknown origin) using p-nitrophenyl glucopyranoside as substrate by UV based microplate reader analysis; format: protein assay
Arthrodermataceae = experiment: Antibacterial activity against Arthrodermataceae; format: functional
Mu-type opioid receptor = Mu-type opioid receptor (Homo sapiens, UniProt P35372); experiment: Inhibition of mu opioid receptor (unknown origin)
Hep 3B2 = experiment: Cytotoxicity against human Hep3B cells assessed as cell growth inhibition by MTT colorimetric assay; format: functional, cell-based
SMMC-7721 = experiment: Cytotoxicity against human SMMC-7721 cells assessed as reduction in cell viability by SRB assay; format: functional, cell-based
HepG2 [15] = experiment: Cytotoxicity against human HepG2 cells assessed as reduction in cell viability by MTT assay; format: functional

Mu-type opioid receptor, sequence (P35372 whole entry): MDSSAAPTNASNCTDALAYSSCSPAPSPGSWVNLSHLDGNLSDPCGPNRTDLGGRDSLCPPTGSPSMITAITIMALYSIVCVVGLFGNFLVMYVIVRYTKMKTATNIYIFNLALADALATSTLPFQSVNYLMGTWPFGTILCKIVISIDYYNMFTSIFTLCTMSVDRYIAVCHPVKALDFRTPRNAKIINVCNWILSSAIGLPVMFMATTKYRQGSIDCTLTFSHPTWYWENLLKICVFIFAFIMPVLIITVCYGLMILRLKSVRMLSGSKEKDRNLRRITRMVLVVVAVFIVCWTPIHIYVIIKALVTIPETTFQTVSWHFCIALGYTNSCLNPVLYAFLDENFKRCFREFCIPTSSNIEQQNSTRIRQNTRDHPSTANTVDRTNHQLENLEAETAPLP
Prostaglandin G/H synthase 2, sequence (P35354 whole entry): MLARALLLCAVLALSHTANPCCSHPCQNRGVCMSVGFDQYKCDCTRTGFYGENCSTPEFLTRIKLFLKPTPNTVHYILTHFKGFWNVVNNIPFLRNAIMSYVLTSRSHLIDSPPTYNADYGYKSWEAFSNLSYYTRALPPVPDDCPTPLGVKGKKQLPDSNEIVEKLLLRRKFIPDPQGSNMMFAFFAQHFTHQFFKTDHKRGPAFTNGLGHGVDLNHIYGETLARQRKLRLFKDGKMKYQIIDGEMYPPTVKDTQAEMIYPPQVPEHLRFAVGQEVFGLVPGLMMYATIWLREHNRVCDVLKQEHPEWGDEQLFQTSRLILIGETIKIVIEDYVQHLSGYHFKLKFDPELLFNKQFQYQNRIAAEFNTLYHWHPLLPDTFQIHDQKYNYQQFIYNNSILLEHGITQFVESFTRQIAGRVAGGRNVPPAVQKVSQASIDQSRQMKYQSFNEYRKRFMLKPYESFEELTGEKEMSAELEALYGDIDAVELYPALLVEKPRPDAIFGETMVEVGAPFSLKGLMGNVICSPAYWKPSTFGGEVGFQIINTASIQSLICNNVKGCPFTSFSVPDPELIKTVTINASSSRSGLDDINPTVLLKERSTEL

With `O=C(CCC(c1c(Cl)cccc1Cl)c1c[nH]c2ccccc12)c1c(O)c2ccccc2oc1=O` (stereo not given) the IC50 (Leishmania donovani) was 95 µg/mL (≈ 193 µM) and the IC50 [1] was 13500 nM.

In the case of `COc1cc([C@@H]2c3cc4c(cc3[C@@H](O[C@@H]3O[C@@H]5CO[C@@H](C)O[C@H]5[C@H](O)[C@H]3O)[C@H]3COC(=O)[C@H]23)OCO4)cc(OC)c1O` [ETOPOSIDE], the IC50 (A549 [2]) is reported as 2270 nM, the IC50 (MCF7 [3]) is reported as 2560 nM and the IC50 (HeLa) is reported as 2560 nM. The IC50 (A549 [4]) was 9900 nM and the IC50 (K562) was 1720 nM.

For `CC1=NN(c2ccccc2)C(=O)/C1=C\c1cn(CCCOc2cc(O)c3c(=O)cc(-c4ccccc4)oc3c2)c2ccccc12`, the IC50 [5] was 700 nM.

Work on `COc1cc(/C=C/C(=O)c2c[nH]c3ccccc23)cc(Br)c1OC` yielded an MIC [6] of 32 µg/mL (≈ 82.8 µM), an MIC (Nannizzia gypsea) of 1 µg/mL (≈ 2.59 µM) and an MIC [7] of 16 µg/mL.

In the case of `CC(C)=CCC[C@](C)(O)[C@H]1CC[C@@](C)([C@H]2CC[C@H]3[C@H]2CC[C@H]2C(C)(C)c4[nH]c5ccc(Br)cc5c4C[C@]32C)O1`, the IC50 (A549 [8]) is reported as 13400 nM.

Molecule `NC(Cc1c[nH]c2ccccc12)C(=O)Oc1ccc2c(=O)c3ccccc3oc2c1` (stereo not given) has an MIC (Escherichia coli) of 15 µg/mL (≈ 37.6 µM), an IC50 (RAW264.7) of 26 µg/mL (≈ 65.3 µM) and an MIC (Candida albicans) of 20 µg/mL (≈ 50.2 µM). For the same molecule, the MIC (Bacillus subtilis) was 16 µg/mL, the MIC (Klebsiella pneumoniae) was 22 µg/mL (≈ 55.2 µM) and the MIC (Fusarium oxysporum) was 20 µg/mL (≈ 50.2 µM). For the same molecule, the MIC (Staphylococcus aureus) was 16 µg/mL and the MIC (Aspergillus niger) was 21 µg/mL (≈ 52.7 µM).

Work on `CC1(C)CC[C@]2(C(=O)O)CC[C@]3(C)C(=CC[C@@H]4[C@@]5(C)Cc6c([nH]c7c(F)cc(F)cc67)C(C)(C)[C@@H]5CC[C@]43C)[C@@H]2C1` yielded an IC50 [9] of 9970 nM.

Molecule `Cc1cc(=O)oc2c(C)c(O)c(-c3cc4ccc(F)cc4[nH]3)cc12` has a GI50 (HOP-92) of 950 nM.

`C[C@]12CC[C@H](OC(=O)[C@H](N)c3c[nH]c4ccccc34)C[C@H]1CC[C@@H]1[C@@H]2[C@H](N)C(=O)[C@]2(C)[C@@H](c3ccc(=O)oc3)CC[C@]12O` showed an IC50 (MDA-MB-453) of 10.6 nM, an IC50 (MCF7 [10]) of 11600 nM and an IC50 (MDA-MB-231) of 27 nM.

For `C=C1C(=O)[C@]23[C@H](OC(=O)c4cc5cc(OC)ccc5[nH]4)[C@H]1CC[C@H]2[C@@]12COC3(O)[C@@H](O)[C@@H]1C(C)(C)CC[C@@H]2O` (single isomer, unassigned), the IC50 (MCF7 [11]) was 390 nM, the IC50 (HCT-116) was 810 nM and the IC50 (Bel-7402) was 830 nM.

In the case of `C[C@]12CC[C@H]3[C@@H](CC=C4C[C@@H](O)CC[C@@H]43)[C@@H]1CC/C2=N\N=C\c1c[nH]c2ccccc12`, the IC50 (MDA-MB-453) is reported as 10 nM, the IC50 (MCF7 [10]) is reported as 1060 nM and the IC50 (MDA-MB-231) is reported as 4.81 nM.

Work on `C[C@@H]1CC[C@H]2[C@@H](C)C(OC(=O)c3cc4cc(Cl)ccc4[nH]3)O[C@@H]3O[C@@]4(C)CC[C@@H]1[C@]32OO4` (stereo not given in full) yielded an IC50 (A549 [12]) of 6170 nM, an IC50 (Toxoplasma gondii) of 85300 nM and an IC50 (MCF7 [13]) of 5250 nM.

`COc1cc(/C=C/C(=O)/C=C/c2c[nH]c3ccccc23)ccc1O` gave an IC50 (Caco-2) of 8000 nM.

Molecule `CC(=O)Oc1ccc(C(=O)/C=C/c2ccc3c(ccn3C)c2)c2c1C=CC(C)(C)O2` has an IC50 (HepG2 [14]) of 220 nM.

`C=C(C)[C@@H](C)CC[C@@H](C)C1CC[C@@]2(C)[C@@H]3CC[C@H]4[C@H](C)c5[nH]c6ccccc6c5C[C@@]45C[C@@]35CC[C@]12C` (stereo not given in full) gave an IC50 (Alpha glucosidase) of 115200 nM.

`COc1ccc(/C=C/C(=O)c2cn(C)c3ccccc23)cc1` showed an MIC (Arthrodermataceae) of 4 µg/mL (≈ 13.7 µM), an MIC (Nannizzia gypsea) of 1 µg/mL (≈ 3.43 µM) and an MIC [7] of 8 µg/mL.

Work on `O=C(N[C@@H]1CC[C@@]2(O)[C@H]3Cc4ccc(O)c5c4[C@@]2(CCN3CC2CC2)[C@H]1O5)c1cc2ccccc2[nH]1` yielded an IC50 (Mu-type opioid receptor) of 0.21 nM.

`CCOC(=O)c1ccc2c(c1)c1c(n2CCN2CCNCC2)-c2cc(C(C)C)ccc2[C@@]2(C)CCC[C@@](C)(C(=O)OC)[C@H]12` gave an IC50 (Hep 3B2) of under 730 nM, an IC50 (SMMC-7721) of under 1390 nM and an IC50 (HepG2 [15]) of 510 nM.

With `C=C(C)[C@@H](C)CC[C@@H](C)[C@H]1CC[C@@]2(C)[C@@H]3CC[C@H]4[C@H](C)C(=O)CC[C@@]45C[C@@]35CC[C@]12C` the IC50 (Alpha glucosidase) was 603800 nM.
